Reference: paper PMC8347686, “Thiourea Derivatives, Simple in Structure but Efficient Enzyme Inhibitors and Mercury Sensors” (Molecules, 2021)

Legend:
AChE = target: T1, AChE (Electrophorus electricus, UniProt O42275); experiment: biochemical; details: for inhibition at 62.5 µg/mL: Conc. 62.5 µg/mL; for inhibition at 125 µg/mL: Conc. 125 µg/mL; for inhibition at 250 µg/mL: Conc. 250 µg/mL; for inhibition at 500 µg/mL: Conc. 500 µg/mL; for inhibition at 1000 µg/mL: Conc. 1000 µg/mL
T1 construct: The enzyme AChE is derived from Electric eel and BChE from equine serum; from tissue
Procedure: (§1) The enzyme AChE is derived from Electric eel and BChE from equine serum. Buffer of phosphate, 0.1 M at pH 8.0 was prepared to whom varied concentration ([…]–1000 μg/mL) of the respective compound was added. The solution of AChE was diluted to 0.03 U/mL from 518 U/mg, similarly BChE from 7–16 U/mg to 0.01 U/mL at the given pH condition. Distilled water was used as solvent, for preparation of 0.5 mM acetylthiocholine iodide (ATchI), 0.2273 mM 5,5′-dithiobis-2-nitrobenzoic acid (DTNB) and 0.5 mM butyrylthiocholine iodide (BTchI). All solutions were stored at 8 °C in a refrigerator prior to performing the experiment.
(§2) Enzyme solution (5 μL), corresponding compound (205 μL), and DTNB reagent (5 μL) were mixed in a cuvette. The solution was incubated for 15 min at 30 °C followed by addition of 5 μL of the substrate solution. Absorbance of the incubated sample was measured at 412 nm by a double-beam spectrophotometer (Thermo Electron Corporation, USA) for 4 min along with the reaction time at 30 °C. The well-established Galanthamine was used as positive control and all experiments were performed in triplicate. The percent enzyme activity and enzyme inhibition by control and test samples were calculated from the rate of absorption with respect to change in time (V = ΔAbs/Δt) using the same procedure as reported previously.

BChE = target: T2, BChE (Equus caballus, UniProt P81908); experiment: Ellman's assay, BChE inhibition; format: biochemical; details: for inhibition at 62.5 µg/mL: Conc. 62.5 µg/mL; for inhibition at 125 µg/mL: Conc. 125 µg/mL; for inhibition at 250 µg/mL: Conc. 250 µg/mL; for inhibition at 500 µg/mL: Conc. 500 µg/mL; for inhibition at 1000 µg/mL: Conc. 1000 µg/mL
T2 construct: The enzyme AChE is derived from Electric eel and BChE from equine serum; from tissue; host or cells: equine serum
Procedure: as §1, §2

mushroom tyrosinase = tested on: mushroom tyrosinase; parameters: method as in PMID 21978680, PMID 28904627; details: ref [6],[42]; cited from earlier work
melanin B16 cells = tested on: melanin B16 cells; parameters: method as in PMID 21978680, PMID 28904627; details: ref [6],[42]; read-out: IC50 as melanin B16 inhibitor; cited from earlier work

T2 sequence (P81908 whole entry): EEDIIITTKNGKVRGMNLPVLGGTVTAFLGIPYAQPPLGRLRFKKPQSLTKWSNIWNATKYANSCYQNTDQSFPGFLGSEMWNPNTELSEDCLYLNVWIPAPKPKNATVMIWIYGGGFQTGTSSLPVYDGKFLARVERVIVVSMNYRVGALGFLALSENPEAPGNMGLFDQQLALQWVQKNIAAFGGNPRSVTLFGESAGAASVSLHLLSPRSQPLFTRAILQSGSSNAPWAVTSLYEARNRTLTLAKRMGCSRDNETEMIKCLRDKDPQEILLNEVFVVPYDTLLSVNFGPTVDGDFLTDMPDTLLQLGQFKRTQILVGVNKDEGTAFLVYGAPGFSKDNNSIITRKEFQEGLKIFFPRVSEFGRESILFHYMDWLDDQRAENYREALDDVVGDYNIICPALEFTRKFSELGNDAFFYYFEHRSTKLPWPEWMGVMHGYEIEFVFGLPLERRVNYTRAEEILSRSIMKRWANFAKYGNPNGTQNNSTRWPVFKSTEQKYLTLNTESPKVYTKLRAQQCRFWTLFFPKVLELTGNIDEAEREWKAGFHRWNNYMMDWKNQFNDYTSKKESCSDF
T1 sequence (O42275 24-633): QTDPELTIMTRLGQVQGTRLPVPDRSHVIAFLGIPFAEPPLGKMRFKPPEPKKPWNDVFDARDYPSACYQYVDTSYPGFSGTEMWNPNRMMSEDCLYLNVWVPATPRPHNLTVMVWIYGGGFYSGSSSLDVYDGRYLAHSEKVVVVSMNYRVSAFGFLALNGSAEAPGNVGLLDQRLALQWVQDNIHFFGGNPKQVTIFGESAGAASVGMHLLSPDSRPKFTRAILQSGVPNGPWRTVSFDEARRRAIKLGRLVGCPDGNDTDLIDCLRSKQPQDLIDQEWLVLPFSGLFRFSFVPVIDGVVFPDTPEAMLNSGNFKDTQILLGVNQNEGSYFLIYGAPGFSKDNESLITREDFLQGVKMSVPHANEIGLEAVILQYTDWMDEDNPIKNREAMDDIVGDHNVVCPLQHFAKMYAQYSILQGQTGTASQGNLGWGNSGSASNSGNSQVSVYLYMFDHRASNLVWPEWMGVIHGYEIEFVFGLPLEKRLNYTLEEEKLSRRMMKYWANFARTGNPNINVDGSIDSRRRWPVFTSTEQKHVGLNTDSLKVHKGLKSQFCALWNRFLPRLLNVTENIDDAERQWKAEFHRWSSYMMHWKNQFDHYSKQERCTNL

Row | SMILES | IC50 (AChE) [µM] | inhibition at 62.5 µg/mL (AChE) [%] | inhibition at 125 µg/mL (AChE) [%] | inhibition at 250 µg/mL (AChE) [%] | inhibition at 500 µg/mL (AChE) [%] | inhibition at 1000 µg/mL (AChE) [%] | IC50 (BChE) [µM] | inhibition at 62.5 µg/mL (BChE) [%] | inhibition at 125 µg/mL (BChE) [%] | inhibition at 250 µg/mL (BChE) [%] | inhibition at 500 µg/mL (BChE) [%] | inhibition at 1000 µg/mL (BChE) [%] | inhibition at 31.5 µg/mL (AChE; Conc. 31.5 µg/mL) [%] | inhibition at 31.5 µg/mL (BChE; Conc. 31.5 µg/mL) [%] | potency as mushroom tyrosinase inhibitor (mushroom tyrosinase) | IC50 (melanin B16 cells) [µM]
1 | CC(C)(C)NC(=S)NC1CCCCC1 [Compound 2, 1-tert-butyl-3-cyclohexylthiourea] | 1400 | 38.7 ± 0.68 | 44.7 ± 1.25 | 48 ± 0.75 | 56.3 ± 1.06 | 63.3 ± 0.98 | 863 | 41.3 ± 1.01 | 46.7 ± 0.78 | 51.4 ± 1.65 | 57.9 ± 0.97 | 65.2 ± 0.72 |  |  |  | 
2 | S=C(Nc1cccc(Cl)c1)NC1CCCCC1 [Compound 3, 1-(3-chlorophenyl)-3-cyclohexylthiourea] | 186 | 51.9 ± 1.16 | 57.34 ± 0.55 | 61.36 ± 0.49 | 67.39 ± 0.49 |  | 223 | 49.9 ± 0.65 | 57.2 ± 0.57 | 65.5 ± 1.04 | 71.3 ± 1.11 | 76.7 ± 0.66 |  |  |  | 
3 | CCCCN(CCCC)C(=S)Nc1ccccc1 [Compound 4, 1-(1,1-dibutyl)-3-phenylthiourea] | 219 | 47.9 ± 0.47 | 71.8 ± 1.5 | 77.8 ± 2.26 | 85.4 ± 0.2 | 93.6 ± 1.12 | 238 | 53.5 ± 0.9 | 77.4 ± 1.7 | 89.8 ± 1.5 | 94.4 ± 0.5 | 98 | 39 ± 0.88 | 47.3 ± 0.7 |  | 
4 | CC(C)CNC(=S)NC1CCCCC1 [Compound 1, 1-isobutyl-3-cyclohexylthiourea] | 415 | 46.52 ± 0.38 | 53.64 ± 0.16 | 57.6 ± 1.7 | 63.94 ± 0.45 | 69.47 ± 0.22 | 392 | 46.9 ± 0.42 | 56.4 ± 0.63 | 61 ± 0.33 | 66.2 ± 0.73 | 74.4 ± 0.68 |  |  |  | 
5 | S=C(Nc1ccccc1)Nc1ccccc1Cl [Compound 5, 1-(2-chlorophenyl)-3-phenylthiourea] | 1310 | 29 ± 0.3 | 35.5 ± 0.5 | 41.7 ± 0.77 | 59.7 ± 0.61 | 66.79 ± 0.63 | 1180 | 31.7 ± 0.61 | 37.5 ± 0.5 | 44.5 ± 0.64 | 63.86 ± 0.6 | 71.6 ± 0.74 |  |  |  | 
6 | S=C(Nc1ccccc1)Nc1ccc(Cl)cc1 [Compound 6, 1-(4-chlorophenyl)-3-phenylthiourea] | 1080 | 31.9 ± 0.48 | 39 ± 0.48 | 47.9 ± 0.96 | 61.6 ± 1.34 | 69.6 ± 1.12 | 1010 | 33 ± 1.15 | 42.7 ± 0.89 | 49 ± 0.58 | 63.03 ± 0.23 | 71.33 ± 0.49 |  |  | moderate potency | 3.4
